Conditions: acidic group

Row | SMILES | pKa
1 | CC(C)Oc1cccc(C(=O)O)c1 | 4.15
2 | CC(C)(C)c1cc([N+](=O)[O-])cc(C(C)(C)C)c1O | 6.92
3 | O=c1[nH]cc(SSc2c[nH]c(=O)[nH]c2=O)c(=O)[nH]1 | 8
4 | O=[N+]([O-])c1ccc(O)c(O)c1 | 6.74
5 | C[N+](C)(C)CCS | 7.98
6 | O=C(O)C#CBr | 1.9
7 | Oc1ccc(Cl)c(Cl)c1 | 8.58
8 | O=C1CNC(=O)N1 | 9.12
9 | Oc1ccc2[nH]ncc2c1 | 10.1
10 | O=C(O)c1cccc(S)c1 | 3.96
11 | N#CC(C#N)=C(C#N)NC(C#N)=C(C#N)C#N | 2.1
12 | N#CC(C#N)=NNc1ccccc1Cl | 5.84
13 | Cn1cnc(C(=O)[O-])c1C(=O)O | 3.9
14 | Cc1cccc(O)c1O | 9.28
15 | CC(C)(C)C(=O)NC(O)C(Cl)(Cl)Cl (centres undefined) | 14.7
16 | Nc1nc2nc[nH]c2c(O)[nH+]1 | 3.25
17 | CC/C=C/Cc1[nH+]ccn1[C@H](C(=O)O)C(C)(C)S | 2
18 | CCOC(=O)c1ccccc1-n1nc(O)cc1-c1ccccc1 | 12.4
19 | CC(=O)[n+]1ccc(C)cc1 | 6.15
20 | Cc1cc[n+](O)cc1 | 1.29
21 | Cn1cnc2cc(O)ccc21 | 9.85
22 | O=S(=O)([O-])c1ccc(O)c2cn[nH]c12 | 7.6
23 | CC(C)(C)C(=O)C(=O)O | 2.3

Same assay, conditions: basic group

Row | SMILES | pKa
24 | N=C(N)Nc1ccccc1 | 10.8
25 | Nc1ccc2cc3cc(Cl)ccc3nc2c1 | 6.95
26 | C[C@@H]1CNC[C@H](C)[NH2+]1 | 5.4
27 | CC(C=C(c1cccs1)c1cccs1)N1CCCCC1C (centres undefined) | 7.46
28 | CN(C)C1CCCCC1 | 10.5
29 | CN(C)CCCCCNC(=O)/C=N/[O-] | 10.3
30 | CCN(CC)CCCC(C)Nc1ccnc2ccc(OC)cc12 (centres undefined) | 10.2
31 | CC[NH+](CC)CCN=C(c1ccccc1C)c1ccccc1C | 2.8
32 | CCCCCCN(CCO)CC(O)CC (centres undefined) | 9.1
33 | Cc1ccc(/N=N/c2ccc(N)cc2)cc1 | 3.04
34 | C=CCC(C)(CN(CC)CC)OC(=O)c1ccccc1 (centres undefined) | 7.8
35 | Cc1nn(-c2ccccc2)c(C(=O)[O-])c1C(=O)[O-] | 5.89
36 | C/N=c1/sc2c(n1C)CCCC2 | 10
37 | O=[N+]([O-])c1cc(-c2ccccc2)nnc1NCCN1CCOCC1 | 6.56
38 | OCCn1cnc2ccccc21 | 5.29
39 | CC#C[C@H](C)Oc1cc(N)c(Cl)cc1C(=O)N[C@@H]1C[C@H]2CC[C@@H](C1)N2C | 9.95
40 | CNCCCN | 10.7
41 | CN/C=N/c1cccc(-c2csc(N=C(N)N)n2)c1 | 8.29
42 | Cc1ccc2c(c1)c1c3n2CCN=C3CCC1 | 8.57
43 | Cc1cc([O-])n(C2CCN(C)CC2)n1 | 9
44 | CC([NH3+])C/C(N)=N/O (centres undefined) | 3.75
45 | Cc1ccc(-c2ncc(-c3ccccc3)o2)cc1 | 1.04
46 | CC(C)(C)c1ccccc1N | 3.78

Row | SMILES | pKa
47 | C=C(C)C(=O)OCCNCC(C)C | 8.91
48 | Cc1cc2cccc(C)c2nc1C | 4.41
49 | NCC(=O)c1ccc(O)cc1 | 8.05
50 | Cc1ccc(CON)cc1 | 4.4
51 | CN(C)CCOC(C)(c1ccccc1)c1ccccc1 | 8.75
52 | C1CCC(C2CCCN2)CC1 (centres undefined) | 10.8
53 | N#CC(C#N)=NNc1ccccc1Cl | -0.77
54 | C[n+]1cnc2nc([O-])cnc2c1[O-] | 6.19
55 | Cc1ccc([N+](=O)[O-])c2c(NCCC[NH+](C)C)ccnc12 | 6.84
56 | Cc1cc(-c2[nH]cc[nH+]2)nn1C | 2
57 | CC(=O)n1ccnc1C | 5.03
58 | Nc1cncc2ccccc12 | 6.28
59 | CCNC(C)C | 11
60 | Cn1cnc2cc(O)ccc21 | 6.1
61 | COc1c(C)ncc(CO)c1C=O | 4.75
62 | c1ccc(Cc2cc(-c3ccccc3)nnc2NCC[NH+]2CCOCC2)cc1 | 3.6
63 | C=CC(C)(C)NC(C)(C)C=C | 10.1
64 | OC1(c2cc3ccccc3o2)CN2CCC1CC2 (centres undefined) | 8.84
65 | CC(C)C(N)C(C)C | 10.4
66 | Cc1cc(N)ccc1CN | 9.77
67 | CCNNCC | 7.66
68 | CCCNCC(=O)O | 10
69 | Cc1cc(C)n(Cc2cc(C)[nH]n2)n1 | 3.5

From the pKa sets of Baltruschat and Czodrowski (2020)
